Source: US4803209A, “Substituted 2,3-diphenyl-1,2-dihydroquinoxalines” (International Minerals & Chemical Corp., priority 1987, dated 1989)
Like-named read-outs stand apart in the source and are kept apart here. Where a SMILES comes first, the peptide text is derived from it. Bridges are numbered along the chain shown (N, C = ends). [ ]: non-standard residue; d: D form. The star is where a group is joined. Ileψ(thiazoline)Cys = CC[C@H](C)[C@H](N)C1=N[C@H](C(=O)*)CS1; dOrn = NCCC[C@@H](N)C(=O)O

Tests used:
[1] = system: Eimeria tenella Eli Lilly Strain 65 (Lilly 65); assay: In vitro anticoccidial test in chick kidney cell monolayers; assay type: cell-based; conditions: 72 h, 3 days, read-out: % Inhibition of Coccidia
Salmonella typhimurium = assay type: cell-based
[2] = system: antibiotic resistant E. coli (E.C. 324); assay type: cell-based; conditions: Gram Neg., 6 h, 37° C., aerobic
[3] = system: E. coli strain 046 (E.C. 046); assay type: cell-based
[4] = system: Streptococcus sp. 1 X C15 (Strep C15); assay type: cell-based
[5] = system: Streptococcus sp. 1 X A7 (Strep A7); assay type: cell-based
[6] = system: Clostridium perfringens (Cp); assay type: cell-based; conditions: Anaerobic, 6 h, 37° C.
[7] = system: Bacteroides fragilis (Bf); assay: Antimicrobial growth inhibition, Bf; assay type: cell-based; conditions: Anaerobic, 6 h, 37° C.
[8] = Growth promotion and feed utilization in chicks; assay type: in vivo, chicks (broiler cockerels); conditions: 8 weeks
[9] = experiment set 1, 75 ppm in feed
[10] = experiment set 4, 50 ppm in feed
[11] = experiment set 2, 50 ppm in feed
[12] = experiment set 3, 50 ppm in feed
[13] = experiment set 5, 50 ppm in feed

Compound	Growth of S.T. in the presence of the test compound (Salmonella typhimurium; 6.4 ppm)	Growth of S.T. in the presence of the test compound (Salmonella typhimurium; 64 ppm)	Growth of E.C. 324 in the presence of the test compound ([2]; 6.4 ppm)	Growth of E.C. 324 in the presence of the test compound ([2]; 64 ppm)	Growth of E.C. 046 in the presence of the test compound ([3]; 6.4 ppm)	Growth of E.C. 046 in the presence of the test compound ([3]; 64 ppm)	Growth of Strep C15 in the presence of the test compound ([4]; 6.4 ppm)	Growth of Strep C15 in the presence of the test compound ([4]; 64 ppm)	Growth of Strep A7 in the presence of the test compound ([5]; 6.4 ppm)	Growth of Strep A7 in the presence of the test compound ([5]; 64 ppm)	Growth of Cp in the presence of the test compound ([6]; 6.4 ppm)	Growth of Cp in the presence of the test compound ([6]; 64 ppm)	Growth of Bf in the presence of the test compound ([7]; 6.4 ppm)	Growth of Bf in the presence of the test compound ([7]; 64 ppm)	also measured
Clc1ccc(C2=Nc3ccccc3NC2c2ccc(Cl)cc2Cl)c(Cl)c1 (centres unmarked) [Example 6, 2,3-di(2,4-dichlorophenyl)-1,2-dihydroquinoxaline]															inhibition at 0.1 ppm [1]: 60%; inhibition at 10 ppm [1]: 100%
CCC[C@@H]1C[C@@H](C(=O)N[C@@H]([C@H]2O[C@H](SC)[C@H](O)[C@@H](O)[C@H]2O)[C@@H](C)O)N(C)C1 [Lincomycin]	+	+	+	+	+	+	-	-	-	-	+	+	-	-	feed efficiency (% better or worse than control) [8, 9]: 12%; weight gain (% better or worse than control) [8, 9]: 20%
NC[C@H]1O[C@H](O[C@H]2[C@H](O)[C@@H](O[C@H]3O[C@H](CO)[C@@H](O)[C@H](N)[C@H]3O)[C@H](N)C[C@@H]2N)[C@H](O)[C@@H](O)[C@@H]1O [Kanamycin]	+	-	+	-	+	+	-	-	-	-	+	+	-	-	feed efficiency (% better or worse than control) [8, 10]: 19%; weight gain (% better or worse than control) [8, 10]: 14%
CC[C@H]1OC(=O)[C@H](C)[C@@H](O[C@H]2C[C@@](C)(OC)[C@@H](O)[C@H](C)O2)[C@H](C)[C@@H](O[C@@H]2O[C@H](C)C[C@H](N(C)C)[C@H]2O)[C@](C)(O)C[C@@H](C)C(=O)[C@H](C)[C@@H](O)[C@]1(C)O [Erythromycin]	+	-	+	+	+	-	-	-	-	-	+	+	+	-	
CC1(C)S[C@@H]2[C@H](NC(=O)Cc3ccccc3)C(=O)N2[C@H]1C(=O)O [Penicillin]	+	-	+	-	+	-	-	-	-	-	+	+	+	-	feed efficiency (% better or worse than control) [8, 9]: 5.5%; weight gain (% better or worse than control) [8, 9]: 20%; feed efficiency (% better or worse than control) [8, 11]: 32%; weight gain (% better or worse than control) [8, 11]: 40%; feed efficiency (% better or worse than control) [8, 12]: 13%; weight gain (% better or worse than control) [8, 12]: 35%; feed efficiency (% better or worse than control) [8, 10]: 11%; weight gain (% better or worse than control) [8, 10]: 19%; feed efficiency (% better or worse than control) [8, 13]: 21%; weight gain (% better or worse than control) [8, 13]: 50%
CC[C@H]1OC(=O)C[C@@H](O)[C@H](C)[C@@H](O[C@@H]2O[C@H](C)[C@@H](O[C@H]3C[C@@](C)(O)[C@@H](O)[C@H](C)O3)[C@H](N(C)C)[C@H]2O)[C@@H](CC=O)C[C@@H](C)C(=O)/C=C/C(C)=C/[C@@H]1CO[C@@H]1O[C@H](C)[C@@H](O)[C@@H](OC)[C@H]1OC [Tylosin]	+	+	+	+	+	+	-	-	-	-	+	-	-	-	
CC[C@H](C)[C@H](N)C1=N[C@H](C(=O)N[C@@H](CC(C)C)C(=O)N[C@H](CCC(=O)O)C(=O)N[C@H](C(=O)N[C@H]2CCCCNC(=O)[C@H](CC(N)=O)NC(=O)[C@@H](CC(=O)O)NC(=O)[C@H](Cc3cnc[nH]3)NC(=O)[C@@H](Cc3ccccc3)NC(=O)[C@H]([C@@H](C)CC)NC(=O)[C@@H](CCCN)NC2=O)[C@@H](C)CC)CS1 [Bacitracin] ({Ileψ(thiazoline)Cys}-L[dE]IK[dOrn]I[dF]H[dD]N; lactam 4-C)	+	+	+	+	+	+	-	-	-	-	+	-	-	-	feed efficiency (% better or worse than control) [8, 9]: 19%; weight gain (% better or worse than control) [8, 9]: 25%; feed efficiency (% better or worse than control) [8, 11]: 32%; weight gain (% better or worse than control) [8, 11]: 40%
Clc1ccc(C2=Nc3cc(Cl)c(Cl)cc3NC2c2ccc(Cl)cc2Cl)c(Cl)c1 (centres unmarked) [Example 3, 2,3-di(2,4-dichlorophenyl)-6,7-dichloro-1,2-dihydroquinoxaline]															inhibition at 0.1 ppm [1]: 88.6%; inhibition at 10 ppm [1]: 98%
Gentamicin	-	-	+	-	+	-	-	-	-	-	+	+	-	-	feed efficiency (% better or worse than control) [8, 12]: 15%; weight gain (% better or worse than control) [8, 12]: 32%
CN(C)[C@@H]1C(O)=C(C(N)=O)C(=O)[C@@]2(O)C(O)=C3C(=O)c4c(O)ccc(Cl)c4[C@@](C)(O)[C@H]3C[C@@H]12 [Chlortetracycline]	-	-	+	-	+	-	-	-	-	-	+	+	+	-	
Polymyxin	-	-	-	-	-	-	-	-	+	-	+	+	+	-	feed efficiency (% better or worse than control) [8, 10]: 6%; weight gain (% better or worse than control) [8, 10]: -3%
